Key:
Assay in all cases: relative viability (nuclei count vs DMSO), 5 days (fraction); higher = more cells survive
[1] = system: HCC-15
Summary of the method: (§1)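 For relative viability, nuclei counts in treated wells were divided by those in vehicle wells. Lung cancer cell lines had been pin-tool dosed in 1536-well plates the day after seeding and cultured for 5 days, then fixed and stained in one step (final 0.05% Triton X-100, 1% formaldehyde, 1 ug/ml Hoechst) and imaged at 4×. Doses were one drug alone or a fixed anchor-drug dose plus five library-drug doses (not always all listed) in √10 steps, and values are duplicate-plate medians.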

[2] = system: NCI-H1993
Summary of the method: as §1

[3] = system: NCI-H358
Summary of the method: as §1

[4] = system: COR-L23
Summary of the method: as §1

[5] = system: HARA
Summary of the method: as §1

[6] = system: NCI-H1793
Summary of the method: as §1

[7] = system: ABC-1
Summary of the method: as §1

[8] = system: NCI-H2228
Summary of the method: as §1

[9] = system: HCC-78
Summary of the method: as §1

[10] = system: NCI-H2405
Summary of the method: as §1

[11] = system: SK-LU-1
Summary of the method: as §1

[12] = system: NCI-H2126
Summary of the method: as §1

[13] = system: NCI-H1395
Summary of the method: as §1

[14] = system: LC-2-ad
Summary of the method: as §1

[15] = system: NCI-H1944
Summary of the method: as §1

[16] = system: HCC-366
Summary of the method: as §1

[17] = system: HOP-62
Summary of the method: as §1

[18] = system: EMC-BAC-2
Summary of the method: as §1

[19] = system: NCI-H23
Summary of the method: as §1

[20] = system: NCI-H838
Summary of the method: as §1

[21] = system: NCI-H2023
Summary of the method: as §1

COc1cc2nccc(Oc3ccc(NC(=O)Nc4cc(C)on4)c(Cl)c3)c2cc1OC [Tivozanib] + CS(=O)(=O)CCNCc1ccc(-c2ccc3ncnc(Nc4ccc(OCc5cccc(F)c5)c(Cl)c4)c3c2)o1 [Lapatinib] (partner 2 µM)
relative viability ([1]; first compound 0.005 µM): 0.83 | relative viability ([1]; first compound 0.01581 µM): 0.899 | relative viability ([1]; first compound 0.05 µM): 0.795 | relative viability ([1]; first compound 0.1581 µM): 0.977 | relative viability ([1]; first compound 0.5 µM): 0.831 | relative viability ([2]; first compound 0.005 µM): 0.774 | relative viability ([2]; first compound 0.01581 µM): 0.775 | relative viability ([2]; first compound 0.05 µM): 0.758 | relative viability ([2]; first compound 0.1581 µM): 0.713 | relative viability ([2]; first compound 0.5 µM): 0.739 | relative viability ([3]; first compound 0.005 µM): 0.476 | relative viability ([3]; first compound 0.01581 µM): 0.563 | relative viability ([3]; first compound 0.05 µM): 0.479 | relative viability ([3]; first compound 0.1581 µM): 0.435 | relative viability ([3]; first compound 0.5 µM): 0.499 | relative viability ([4]; first compound 0.005 µM): 0.902 | relative viability ([4]; first compound 0.01581 µM): 0.99 | relative viability ([4]; first compound 0.05 µM): 0.991 | relative viability ([4]; first compound 0.1581 µM): 0.928 | relative viability ([4]; first compound 0.5 µM): 0.67 | relative viability ([5]; first compound 0.005 µM): 0.615 | relative viability ([5]; first compound 0.01581 µM): 0.724 | relative viability ([5]; first compound 0.05 µM): 0.79 | relative viability ([5]; first compound 0.1581 µM): 0.641 | relative viability ([5]; first compound 0.5 µM): 0.831 | relative viability ([6]; first compound 0.005 µM): 0.619 | relative viability ([6]; first compound 0.01581 µM): 0.478 | relative viability ([6]; first compound 0.05 µM): 0.696 | relative viability ([6]; first compound 0.5 µM): 0.867 | relative viability ([7]; first compound 0.005 µM): 1.33 | relative viability ([7]; first compound 0.01581 µM): 1.15 | relative viability ([7]; first compound 0.05 µM): 1.26 | relative viability ([7]; first compound 0.1581 µM): 1.16 | relative viability ([7]; first compound 0.5 µM): 1.22 | relative viability ([8]; first compound 0.005 µM): 1.07 | relative viability ([8]; first compound 0.01581 µM): 1.1 | relative viability ([8]; first compound 0.05 µM): 1.07 | relative viability ([8]; first compound 0.1581 µM): 1.03 | relative viability ([8]; first compound 0.5 µM): 0.948 | relative viability ([9]; first compound 0.005 µM): 0.683 | relative viability ([9]; first compound 0.01581 µM): 0.772 | relative viability ([9]; first compound 0.05 µM): 0.851 | relative viability ([9]; first compound 0.1581 µM): 1.58 | relative viability ([9]; first compound 0.5 µM): 0.455 | relative viability ([10]; first compound 0.005 µM): 0.972 | relative viability ([10]; first compound 0.01581 µM): 1.28 | relative viability ([10]; first compound 0.05 µM): 1.1 | relative viability ([10]; first compound 0.1581 µM): 1.01 | relative viability ([10]; first compound 0.5 µM): 0.572 | relative viability ([11]; first compound 0.005 µM): 0.827 | relative viability ([11]; first compound 0.01581 µM): 0.809 | relative viability ([11]; first compound 0.05 µM): 0.895 | relative viability ([11]; first compound 0.1581 µM): 0.704 | relative viability ([11]; first compound 0.5 µM): 0.738 | relative viability ([12]; first compound 0.005 µM): 0.686 | relative viability ([12]; first compound 0.01581 µM): 0.784 | relative viability ([12]; first compound 0.05 µM): 0.755 | relative viability ([12]; first compound 0.1581 µM): 0.559 | relative viability ([12]; first compound 0.5 µM): 0.774 | relative viability ([13]; first compound 0.005 µM): 0.939 | relative viability ([13]; first compound 0.01581 µM): 1.11 | relative viability ([13]; first compound 0.05 µM): 1.02 | relative viability ([13]; first compound 0.1581 µM): 0.863 | relative viability ([13]; first compound 0.5 µM): 0.778 | relative viability ([14]; first compound 0.005 µM): 0.959 | relative viability ([14]; first compound 0.01581 µM): 0.944 | relative viability ([14]; first compound 0.05 µM): 0.856 | relative viability ([14]; first compound 0.1581 µM): 0.542 | relative viability ([14]; first compound 0.5 µM): 0.466 | relative viability ([15]; first compound 0.005 µM): 0.826 | relative viability ([15]; first compound 0.01581 µM): 0.888 | relative viability ([15]; first compound 0.05 µM): 0.758 | relative viability ([15]; first compound 0.1581 µM): 0.666 | relative viability ([15]; first compound 0.5 µM): 0.841 | relative viability ([16]; first compound 0.005 µM): 0.991 | relative viability ([16]; first compound 0.01581 µM): 1.08 | relative viability ([16]; first compound 0.05 µM): 1.12 | relative viability ([16]; first compound 0.1581 µM): 1.03 | relative viability ([16]; first compound 0.5 µM): 0.976 | relative viability ([17]; first compound 0.005 µM): 0.932 | relative viability ([17]; first compound 0.01581 µM): 0.944 | relative viability ([17]; first compound 0.05 µM): 0.994 | relative viability ([17]; first compound 0.1581 µM): 0.787 | relative viability ([17]; first compound 0.5 µM): 0.87 | relative viability ([18]; first compound 0.005 µM): 0.954 | relative viability ([18]; first compound 0.01581 µM): 0.875 | relative viability ([18]; first compound 0.05 µM): 0.871 | relative viability ([18]; first compound 0.1581 µM): 0.675 | relative viability ([18]; first compound 0.5 µM): 0.908 | relative viability ([19]; first compound 0.005 µM): 1.1 | relative viability ([19]; first compound 0.01581 µM): 1.37 | relative viability ([19]; first compound 0.05 µM): 1.09 | relative viability ([19]; first compound 0.1581 µM): 0.858 | relative viability ([19]; first compound 0.5 µM): 0.942 | relative viability ([20]; first compound 0.005 µM): 0.933 | relative viability ([20]; first compound 0.01581 µM): 0.913 | relative viability ([20]; first compound 0.05 µM): 1.01 | relative viability ([20]; first compound 0.5 µM): 0.87 | relative viability ([21]; first compound 0.005 µM): 0.731 | relative viability ([21]; first compound 0.01581 µM): 0.97 | relative viability ([21]; first compound 0.05 µM): 0.878 | relative viability ([21]; first compound 0.1581 µM): 0.634 | relative viability ([21]; first compound 0.5 µM): 0.768

From the supplement of paper PMC10307832
